Test results published in US20240391923A1, “METHIONINE ADENOSYLTRANSFERASE 2A INHIBITOR FOR TREATING MTAP DELETION-TYPE CANCER” (SUZHOU GENHOUSE BIO CO., LTD., priority 2022, published 2024).
Where two headings read alike, the source gives them in different places.

Assays:
[1] = target: MAT2A recombinant protein (Homo sapiens, UniProt P31153); assay: MAT2A inhibitory activity (malachite green colorimetric enzyme assay); format: biochemical
Summary of the method: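 Recombinant human MAT2A with L-methionine and ATP in 50 mM HEPES pH 7.5, 50 mM KCl, 10 mM MgCl2, 10 mM DTT, 60 min at room temperature. Phosphate released detected by malachite green reagent (15 min) at 630 nm. Ten-point 1:3 series from 1000 nM final; IC50 by variable-slope non-linear regression.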

[2] = tested on: SDMA in HCT116-MTAP-knockout cell line; assay: Cell symmetric dimethylarginine (SDMA) test, In-cell Western, HCT116-MTAP-knockout; format: cell-based; details: Homo sapiens, 96 h
[3] = tested on: SDMA in human colon cancer cell line HCT116; assay: Cell symmetric dimethylarginine (SDMA) test, In-cell Western, HCT116 (MTAP wild-type); format: cell-based; details: Homo sapiens, HCT-116, 96 h
Summary of the method: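 HCT116 cells treated 4 days at 37° C with compound, top concentration 6 μM, 1:4 dilutions, 6 points, versus DMSO. Fixed cells stained for SDMA with DRAQ5 normalisation; 800/700 nm ratio after background subtraction fitted by non-linear regression for IC50.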

[4] = tested on: HCT116-MTAP wild-type (+/+)-cell strain; assay: Tumor cell proliferation inhibition assay (CellTiter-Glo), HCT116-MTAP wild-type (+/+); format: cell-based; details: Homo sapiens, 120 h, HCT116-MTAP wild-type (+/+) cells, 5-day treatment
Summary of the method: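 Growth inhibition is evaluated from cellular ATP measured with CellTiter-Glo once cells have been treated for 5 days. Compounds are added 24 h after seeding as ten threefold dilutions starting at 10 μM, with a separate DMSO treatment group.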

Hut-78 cell strain = assay: Tumor cell proliferation inhibition assay (CellTiter-Glo), Hut-78; format: cell-based; details: Homo sapiens, HuT78, 120 h, Hut-78 cells, 5-day treatment
Description: After the HCT116-MTAP-knockout (−/−) cell strain, the HCT116-MTAP wild-type(+/+)-cell strain, the DOHH-2 cell strain, or the Hut-78 cell strain was treated with the test compound for 5 days, the ATP level was measured using a CellTiter-Glo kit of Promega to evaluate the inhibition of the test compound against the growth of the tumor cell strain.
In the present application, the HCT116-MTAP-knockout (−/−) cell strain, the HCT116-MTAP wild-type (+/+)-cell strain, the DOHH-2 cell strain, or the Hut-78 cell strain was seeded into a 96-well cell culture plate at an appropriate cell density. After 24 h, the cells were treated using the test compounds diluted 1:3 fold at the highest concentration of 10 μM for 10 gradients, and a DMSO treatment group was set up separately. The cells were cultured in a 37° C./5% CO2 incubator for 5 days.

[5] = IC50 score class, read-out: MAT2A Inhibition (score)
[6] = IC50 score class, read-out: Cell 96 h SDMA Inhibition (HCT116-MTAP−/−) (score)
[7] = read-out: Cell 96 h SDMA Inhibition (HCT116-MTAP−/−)
[8] = IC50 score class, read-out: Cell 96 h SDMA Inhibition (HCT116-MTAP+/+) (score)
[9] = read-out: Cell 96 h SDMA inhibition (HCT116-MTAP+/+)
[10] = IC50 score, read-out: Tumor cell 5-day relative growth inhibition (HCT116-MTAP+/+) (nM), score
[11] = IC50 value, read-out: Tumor cell 5-day relative growth inhibition (HCT116-MTAP+/+)
[12] = IC50 score, read-out: Tumor cell 5-day relative growth inhibition (Hut-78) (nM), score
[13] = IC50 value, read-out: Tumor cell 5-day relative growth inhibition (Hut-78)

Chain of MAT2A recombinant protein (P31153 whole entry): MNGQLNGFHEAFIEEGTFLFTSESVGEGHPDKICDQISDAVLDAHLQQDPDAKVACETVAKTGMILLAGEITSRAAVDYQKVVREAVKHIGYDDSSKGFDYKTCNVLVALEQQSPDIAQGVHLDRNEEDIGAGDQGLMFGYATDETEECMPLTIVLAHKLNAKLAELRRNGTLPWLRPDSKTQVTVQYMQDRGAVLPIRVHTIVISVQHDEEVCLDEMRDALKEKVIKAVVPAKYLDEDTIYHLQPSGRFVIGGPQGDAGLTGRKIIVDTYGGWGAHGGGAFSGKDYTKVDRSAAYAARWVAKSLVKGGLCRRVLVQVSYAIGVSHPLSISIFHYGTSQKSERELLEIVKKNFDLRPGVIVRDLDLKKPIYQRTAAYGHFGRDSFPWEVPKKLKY

Cn1cc2c(n1)c(=O)n(-c1cncc(O)c1)c1nc(C(F)(F)F)ccc21 [Compound B221]
IC50 [1, 5]: < 100 nM | IC50 ([1]; read-out: MAT2A Inhibition): 52.7 nM | IC50 [2, 6]: 1000 to 3000 nM | IC50 [2, 7]: 2540 nM | IC50 [3, 8]: 200 to 1000 nM | IC50 [3, 9]: 475 nM | IC50 [4, 10]: ≥ 2000 nM | IC50 [4, 11]: > 2000 nM | IC50 (Hut-78 cell strain; [12]): ≥ 2000 nM | IC50 (Hut-78 cell strain; [13]): 10600 nM

O=c1c2nn(C3CCOC3)cc2c2ccc(C(F)(F)F)nc2n1-c1cccnc1 (stereo not shown) [Compound B204]
IC50 [1, 5]: < 100 nM | IC50 ([1]; read-out: MAT2A Inhibition): 67.4 nM | IC50 [2, 6]: 1000 to 3000 nM | IC50 [2, 7]: 1850 nM | IC50 [3, 8]: 1000 to 3000 nM | IC50 [3, 9]: 1190 nM | IC50 (Hut-78 cell strain; [12]): < 500 nM | IC50 (Hut-78 cell strain; [13]): 312 nM

Cc1ncccc1-n1c(=O)c2nn(C3CC3)cc2c2ccc(Cl)cc21 [Compound B226]
IC50 [1, 5]: < 100 nM | IC50 ([1]; read-out: MAT2A Inhibition): 30.9 nM | IC50 [2, 6]: < 200 nM | IC50 [2, 7]: 16.5 nM | IC50 [3, 8]: 200 to 1000 nM | IC50 [3, 9]: 919 nM | IC50 [4, 10]: 500 to 2000 nM | IC50 [4, 11]: 1030 nM | IC50 (Hut-78 cell strain; [12]): < 500 nM | IC50 (Hut-78 cell strain; [13]): 27.7 nM

Cn1cc2c(n1)c(=O)n(-c1cccc(F)c1)c1nc(C(F)(F)F)ccc21 [Compound B193]
IC50 [1, 5]: < 100 nM | IC50 ([1]; read-out: MAT2A Inhibition): 25 nM | IC50 [2, 6]: 200 to 1000 nM | IC50 [2, 7]: 387 nM | IC50 [3, 8]: 1000 to 3000 nM | IC50 [3, 9]: 2110 nM | IC50 (Hut-78 cell strain; [12]): 500 to 2000 nM | IC50 (Hut-78 cell strain; [13]): 696 nM

Cn1cc2c(n1)c(=O)n(-c1ccc3[nH]cnc3c1)c1cc(Cl)ccc21 [Compound B206]
IC50 [1, 5]: < 100 nM | IC50 ([1]; read-out: MAT2A Inhibition): 93 nM | IC50 [2, 6]: 1000 to 3000 nM | IC50 [2, 7]: 1180 nM | IC50 [3, 8]: 1000 to 3000 nM | IC50 [3, 9]: 1290 nM | IC50 (Hut-78 cell strain; [12]): ≥ 2000 nM | IC50 (Hut-78 cell strain; [13]): > 2000 nM

Cc1[nH]nc2c(=O)n(-c3cccnc3)c3nc(C(F)(F)F)ccc3c12 [Compound B216]
IC50 [1, 5]: < 100 nM | IC50 ([1]; read-out: MAT2A Inhibition): 25.3 nM | IC50 [2, 6]: < 200 nM | IC50 [2, 7]: 134 nM | IC50 [3, 8]: 200 to 1000 nM | IC50 [3, 9]: 433 nM | IC50 [4, 10]: ≥ 2000 nM | IC50 [4, 11]: 3590 nM | IC50 (Hut-78 cell strain; [12]): < 500 nM | IC50 (Hut-78 cell strain; [13]): 245 nM

Cc1ncccc1-n1c(=O)c2[nH]ncc2c2ccc(Cl)cc21 [Compound B103]
IC50 [1, 5]: < 100 nM | IC50 ([1]; read-out: MAT2A Inhibition): 54.8 nM | IC50 [2, 6]: < 200 nM | IC50 [2, 7]: 27.8 nM | IC50 [3, 8]: < 200 nM | IC50 [3, 9]: 53.9 nM | IC50 (Hut-78 cell strain; [12]): < 500 nM | IC50 (Hut-78 cell strain; [13]): 14.6 nM

Cn1cc2c(n1)c(=O)n(-c1ccccc1)c1nc(C(F)(F)F)ccc21 [Compound B177]
IC50 [1, 5]: < 100 nM | IC50 ([1]; read-out: MAT2A Inhibition): 24.3 nM | IC50 [2, 6]: 200 to 1000 nM | IC50 [2, 7]: 300 nM | IC50 [3, 8]: 200 to 1000 nM | IC50 [3, 9]: 858 nM | IC50 (Hut-78 cell strain; [12]): 500 to 2000 nM | IC50 (Hut-78 cell strain; [13]): 866 nM

Cn1cc2c(n1)c(=O)n(-c1ccnn1C)c1cc(Cl)ccc21 [Compound B58]
IC50 [1, 5]: < 100 nM | IC50 ([1]; read-out: MAT2A Inhibition): 55.2 nM | IC50 [2, 6]: 200 to 1000 nM | IC50 [2, 7]: 267 nM | IC50 [3, 8]: 1000 to 3000 nM | IC50 [3, 9]: 1190 nM | IC50 (Hut-78 cell strain; [12]): < 500 nM | IC50 (Hut-78 cell strain; [13]): 206 nM

COc1cc(Cl)cc2c1c1cn(C)nc1c(=O)n2-c1cccnc1 [Compound B176]
IC50 [1, 5]: < 100 nM | IC50 ([1]; read-out: MAT2A Inhibition): 24.6 nM | IC50 [2, 6]: 200 to 1000 nM | IC50 [2, 7]: 263 nM | IC50 [3, 8]: 1000 to 3000 nM | IC50 [3, 9]: 1320 nM | IC50 (Hut-78 cell strain; [12]): 500 to 2000 nM | IC50 (Hut-78 cell strain; [13]): 985 nM

Cc1cc(-n2c(=O)c3nn(C)cc3c3ccc(Cl)cc32)n(C)n1 [Compound B175]
IC50 [1, 5]: < 100 nM | IC50 ([1]; read-out: MAT2A Inhibition): 80.5 nM | IC50 [2, 6]: 200 to 1000 nM | IC50 [2, 7]: 993 nM | IC50 [3, 8]: > 3000 nM | IC50 [3, 9]: 6980 nM | IC50 (Hut-78 cell strain; [12]): ≥ 2000 nM | IC50 (Hut-78 cell strain; [13]): 2040 nM

Cc1cncc(-n2c(=O)c3nn(C)cc3c3ccc(C(F)(F)F)nc32)c1 [Compound B217]
IC50 [2, 6]: 1000 to 3000 nM | IC50 [2, 7]: 1820 nM | IC50 [3, 8]: > 3000 nM | IC50 [3, 9]: > 3000 nM | IC50 [4, 10]: ≥ 2000 nM | IC50 [4, 11]: > 2000 nM | IC50 (Hut-78 cell strain; [12]): ≥ 2000 nM | IC50 (Hut-78 cell strain; [13]): 5430 nM

Cn1cc2c(n1)c(=O)n(-c1cccnc1Cl)c1nc(C(F)(F)F)ccc21 [Compound B196]
IC50 [1, 5]: < 100 nM | IC50 ([1]; read-out: MAT2A Inhibition): 45.1 nM | IC50 [2, 6]: < 200 nM | IC50 [2, 7]: 25.3 nM | IC50 [3, 8]: 200 to 1000 nM | IC50 [3, 9]: 691 nM | IC50 (Hut-78 cell strain; [12]): < 500 nM | IC50 (Hut-78 cell strain; [13]): 9.3 nM

Cn1cc2c(n1)c(=O)n(-c1cccnc1C1CC1)c1nc(C(F)(F)F)ccc21 (single isomer, unassigned) [Compound B213]
IC50 [2, 6]: < 200 nM | IC50 [2, 7]: 25 nM | IC50 [3, 8]: 200 to 1000 nM | IC50 [3, 9]: 206 nM | IC50 [4, 10]: 500 to 2000 nM | IC50 [4, 11]: 1740 nM | IC50 (Hut-78 cell strain; [12]): < 500 nM | IC50 (Hut-78 cell strain; [13]): 21.8 nM

Cc1ccc(-n2c(=O)c3nn(C)cc3c3ccc(C(F)(F)F)nc32)cn1 [Compound B223]
IC50 [2, 6]: 200 to 1000 nM | IC50 [2, 7]: 692 nM | IC50 [3, 8]: 200 to 1000 nM | IC50 [3, 9]: 583 nM | IC50 [4, 10]: ≥ 2000 nM | IC50 [4, 11]: > 2000 nM | IC50 (Hut-78 cell strain; [12]): 500 to 2000 nM | IC50 (Hut-78 cell strain; [13]): 1360 nM

COc1ncccc1-n1c(=O)c2nn(C)cc2c2ccc(C(F)(F)F)nc21 [Compound B203]
IC50 [1, 5]: < 100 nM | IC50 ([1]; read-out: MAT2A Inhibition): 51.4 nM | IC50 [2, 6]: < 200 nM | IC50 [2, 7]: 66.6 nM | IC50 [3, 8]: 200 to 1000 nM | IC50 [3, 9]: 634 nM | IC50 (Hut-78 cell strain; [12]): < 500 nM | IC50 (Hut-78 cell strain; [13]): 40.4 nM

Cn1cc2c(n1)c(=O)n(-c1cccc(C#N)c1)c1nc(C(F)(F)F)ccc21 [Compound B192]
IC50 [1, 5]: < 100 nM | IC50 ([1]; read-out: MAT2A Inhibition): 26.9 nM | IC50 [2, 6]: 200 to 1000 nM | IC50 [2, 7]: 255 nM | IC50 [3, 8]: 1000 to 3000 nM | IC50 [3, 9]: 2450 nM | IC50 (Hut-78 cell strain; [12]): < 500 nM | IC50 (Hut-78 cell strain; [13]): 378 nM
